The nature of assay [1]: Luminescence Cell-Based Dose Response to Identify Activators of Luciferase Translation or Activity in H4-C Neuroglioblastoma Cells. [Related pubchem assays: 1829 (Project Summary), 1814 (Primary HTS)]. The class given is functional.
Assay [2] is described as follows: Luminescence Cell-Based Dose Confirmation to Identify Activators of 5'UTR Stem-Loop Driven Alpha-Synuclein mRNA Translation in H4 Neuroglioblastoma Cells. [Related pubchem assays: 1829 (Project Summary), 1814 (Primary HTS)]. Type of assay: functional.
A short description of assay [3]: Luminescence Cell-Based Dose Response HTS to Identify Activators of Luciferase Translation or Activity in H4 […] Cells. [Related pubchem assays: 1829 (Project Summary), 1814 (Primary HTS)]. The class given is functional.
The subject of assay [4] is H4. The experiment in a line: Luminescence Cell-Based Dose Response HTS to Identify Activators of 5'UTR Stem-Loop Driven Prion Protein mRNA Translation in H4 Neuroglioblastoma Cells. [Related pubchem assays: 1829 (Project Summary), 1814 (Primary HTS)]. Type of assay: functional. The settings on record: Homo sapiens.
Assay [5] in a line: Luminescence Cell-Based Dose Response to Identify Activators of 5'UTR Stem-Loop Driven Prion Protein mRNA Translation in H4-C Neuroglioblastoma Cells. [Related pubchem assays: 1829 (Project Summary), 1814 (Primary HTS)]. The class given is functional.
The target in assay [6] is T1, DNA repair protein RAD52 homolog (Homo sapiens, UniProt P43351).
T1 sequence (P43351 whole entry): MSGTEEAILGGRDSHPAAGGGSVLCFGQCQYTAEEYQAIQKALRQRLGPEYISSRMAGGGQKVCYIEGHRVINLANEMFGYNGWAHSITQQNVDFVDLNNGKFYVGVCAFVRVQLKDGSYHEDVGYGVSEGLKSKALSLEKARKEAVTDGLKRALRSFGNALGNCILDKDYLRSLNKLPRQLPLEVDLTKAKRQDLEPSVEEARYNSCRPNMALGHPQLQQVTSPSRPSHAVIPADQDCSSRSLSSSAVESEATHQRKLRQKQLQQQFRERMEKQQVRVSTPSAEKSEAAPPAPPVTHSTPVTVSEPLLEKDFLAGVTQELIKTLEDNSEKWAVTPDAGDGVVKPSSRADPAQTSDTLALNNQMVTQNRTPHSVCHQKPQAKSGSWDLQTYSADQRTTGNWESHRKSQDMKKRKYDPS
The class given is functional, biochemical.

The target of assay [7] is T2, High affinity choline transporter 1 (Homo sapiens, UniProt Q9GZV3).
T2 sequence (Q9GZV3 whole entry): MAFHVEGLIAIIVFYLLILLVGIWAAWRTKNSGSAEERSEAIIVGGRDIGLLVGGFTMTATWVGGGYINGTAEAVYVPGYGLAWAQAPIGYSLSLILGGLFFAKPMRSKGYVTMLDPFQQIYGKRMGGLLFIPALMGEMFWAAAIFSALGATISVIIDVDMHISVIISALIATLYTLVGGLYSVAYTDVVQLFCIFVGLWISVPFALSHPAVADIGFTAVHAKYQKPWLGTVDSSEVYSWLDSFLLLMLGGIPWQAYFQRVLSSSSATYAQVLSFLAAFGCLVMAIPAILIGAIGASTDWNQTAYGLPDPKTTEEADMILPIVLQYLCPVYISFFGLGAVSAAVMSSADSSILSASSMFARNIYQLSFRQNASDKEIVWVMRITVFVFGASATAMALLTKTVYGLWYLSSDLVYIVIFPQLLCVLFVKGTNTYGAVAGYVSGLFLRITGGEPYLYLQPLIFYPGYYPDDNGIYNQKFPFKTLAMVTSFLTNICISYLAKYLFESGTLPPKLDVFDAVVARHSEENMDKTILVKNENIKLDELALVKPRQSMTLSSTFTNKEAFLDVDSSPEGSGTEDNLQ
Kind of assay: human choline transporter blockers, potency – cell-based, 5-point CRC, membrane potential dye, dose response (AID 504840). Type of assay: functional.

Assay [8] has as its target Nonstructural protein 1 (Influenza A virus, UniProt Q194T2). The class given is functional, Influenza A virus (A/California/07/2009(H1N1)).
The nature of assay [9]: NIH3T3 cell viability loss – ATP luminescence, mouse fibroblasts, counter-screen, dose response (AID 2010).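 Note: cells exposed to compound for about 90 hours before reading.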 Type of assay: functional, cell-based. Background: Counterscreens check selectivity or assay interference.
Assay [10] can be described thus: Trypanosoma cruzi growth suppression in host cells – NIH3T3 host cells, beta-gal luminescence, confirmation (AID 2044).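 Note: intracellular parasites grown in NIH/3T3 mouse fibroblasts as host cells; luminescent beta-galactosidase reporter signal from transgenic T. cruzi replicating inside host cells; inhibitors lower the luminescence signal.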 Type of assay: functional, cell-based.
In assay [11] the target is Large T antigen (Simian virus 40, UniProt P03070). The class given is functional, Betapolyomavirus macacae.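 Note: Confirmatory-stage PubChem screen for compounds that inhibit SV40 T antigen.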
Assay [12] has as its target Induced myeloid leukemia cell differentiation protein Mcl-1 (Homo sapiens, UniProt Q07820). Type of assay: functional.
Assay [13] is described as follows: blockers of HIV-1 envelope-mediated cell-cell fusion – cherry-pick, dose response (AID 652057). The class given is functional, cell-based.
The nature of assay [14]: viability of PTEN-deleted HCT116 cells – cell-based, HCT116 PTEN knockout, dose response (AID 1047).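 Note: HCT116 colon tumor cells with PTEN knocked out; cells exposed to compound for 60 hours before readout; potency for loss of cell viability measured by luminescence.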 The class given is functional.
The nature of assay [15]: viability of HCT116 lacking mutant beta-catenin – cell-based, human colon tumor, dose response (AID 1045).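 Note: HCT116 colon tumor cells with beta catenin knocked out; cells exposed to compound for 60 hours.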 The class given is functional.
Assay [16] in a line: blockers of HIV-1 ZM109 envelope-driven cell-cell fusion – HeLa effector, CEM target cells, luciferase, cherry-pick, dose response (AID 652058).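 Note: luciferase signal from HIV-1 Env mediated cell-cell fusion of effector and target cells.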 Type of assay: functional, cell-based.
A short description of assay [17]: off-target signal loss in HeLa-CEM21 co-culture – HeLa F-luc CTL cells, cherry-picked, counter-screen for HIV-1 Env fusion inhibitor project, dose response (AID 652040).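 Note: potency for signal decrease marking cytotoxic or nonspecific inhibition.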 Type of assay: functional, cell-based.
A short description of assay [18]: HIV-1 AD8 envelope cell-cell fusion blockers – cherry-pick, dose response (AID 652062).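 Note: luciferase signal from cell-cell fusion driven by HIV-1 clade B AD8 Env; potency is for inhibitors of fusion seen as a drop in luminescence.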 Type of assay: functional, cell-based.

The EC50 is the midpoint of the concentration-response curve. One may read the AC50 as the concentration at which the activity in the assay is half-maximal. One may read the IC50 as the point on the concentration scale where inhibition reaches its midpoint.

Structures are written as SMILES. Active and inactive are the calls of the source.

Induced myeloid leukemia cell differentiation protein Mcl-1, sequence (Q07820 whole entry, the tested form may be a part): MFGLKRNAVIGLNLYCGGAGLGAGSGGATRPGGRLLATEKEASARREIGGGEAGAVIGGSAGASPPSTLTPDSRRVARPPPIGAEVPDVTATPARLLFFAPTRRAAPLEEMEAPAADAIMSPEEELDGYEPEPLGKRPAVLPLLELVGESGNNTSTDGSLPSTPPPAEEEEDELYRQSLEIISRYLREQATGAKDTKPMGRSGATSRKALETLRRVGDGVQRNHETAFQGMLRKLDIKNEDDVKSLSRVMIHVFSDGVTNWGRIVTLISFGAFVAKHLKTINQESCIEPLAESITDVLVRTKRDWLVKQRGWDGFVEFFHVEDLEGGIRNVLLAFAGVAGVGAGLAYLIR
Large T antigen, sequence (P03070 whole entry): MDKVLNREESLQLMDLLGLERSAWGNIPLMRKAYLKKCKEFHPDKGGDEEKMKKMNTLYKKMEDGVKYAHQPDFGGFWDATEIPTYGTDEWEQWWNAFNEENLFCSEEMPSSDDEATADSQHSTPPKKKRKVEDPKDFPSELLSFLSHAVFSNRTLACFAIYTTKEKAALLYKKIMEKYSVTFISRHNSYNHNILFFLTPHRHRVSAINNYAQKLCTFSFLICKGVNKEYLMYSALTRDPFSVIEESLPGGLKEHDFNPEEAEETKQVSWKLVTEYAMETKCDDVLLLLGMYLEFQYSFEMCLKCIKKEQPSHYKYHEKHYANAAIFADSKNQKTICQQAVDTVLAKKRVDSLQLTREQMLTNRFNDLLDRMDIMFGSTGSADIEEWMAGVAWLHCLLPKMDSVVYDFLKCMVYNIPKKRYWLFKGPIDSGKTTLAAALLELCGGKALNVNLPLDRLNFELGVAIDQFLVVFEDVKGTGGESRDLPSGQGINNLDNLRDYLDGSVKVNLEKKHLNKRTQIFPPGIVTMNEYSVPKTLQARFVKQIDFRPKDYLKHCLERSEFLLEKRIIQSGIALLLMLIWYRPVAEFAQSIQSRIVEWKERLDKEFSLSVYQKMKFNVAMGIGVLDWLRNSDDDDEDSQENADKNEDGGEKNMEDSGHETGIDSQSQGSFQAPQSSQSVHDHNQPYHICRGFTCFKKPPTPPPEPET
Nonstructural protein 1, sequence (Q194T2 whole entry): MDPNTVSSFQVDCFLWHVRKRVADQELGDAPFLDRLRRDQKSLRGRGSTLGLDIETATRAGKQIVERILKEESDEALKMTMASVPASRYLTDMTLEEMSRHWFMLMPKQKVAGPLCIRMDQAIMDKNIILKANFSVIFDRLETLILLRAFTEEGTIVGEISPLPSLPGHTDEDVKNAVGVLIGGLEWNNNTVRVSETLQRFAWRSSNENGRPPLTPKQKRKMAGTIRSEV

For `COc1ccc(N=C(S)Nc2cc(C)ccn2)c(OC)c1`, the EC50 in [1] is > 12 µM (not active); in [2], 0.256 µM (active); in assay [3], < 0.1 µM (inconclusive); in assay [4], > 120 µM (not active); in [5], 0.393 µM (active).
With `O=C(/C=C/c1cn(-c2ccccc2)nc1-c1ccc2c(c1)OCCO2)NCCCN1CCOCC1`, in assay [6], the AC50 is 16.1 µM (active). Also, the IC50 in assay [7] is 20 µM (active).
Consider `CCOc1cccc(=NC2CCCCC2)c2c(C)[nH]c(C)c12`, for which the IC50 in assay [8] is 68.8 µM (active). In [6], the AC50 is 3.49 µM (active).
`COc1ccc(N2CCc3c(C)nc4c(OC)cc(OC)cc4c32)cc1`: in [6], the half-maximal activity concentration (AC50) is 3.96 µM (active). For the same molecule, the values for the EC50 in assay [9] and in assay [10] were 36.5 µM (active) and 0.97 µM (active), respectively.
As for `CCS(=O)(=O)c1nc(S(=O)(=O)c2ccc(C)cc2)c(N2CC(C)OC(C)C2)s1` (stereo unspecified), the concentration giving a half-maximal response (EC50) was > 12 µM (not active) in [1]; 0.81 µM (active) in assay [2]; < 0.1 µM (active) in assay [3]; > 120 µM (not active) in assay [4]; > 12 µM (not active) in [5].
Turning to `O=C(NCc1ccccc1)c1cnc2cc3c(cc2c1O)OCCO3`, the EC50 in [1] is 0.334 µM (active); in assay [2] it was 0.2 µM (active); in assay [3], < 0.1 µM (active); in assay [4] it was 0.282 µM (active); in assay [5], 0.421 µM (active).
`CN(C)c1ccc(Nc2nc(N)c([N+](=O)[O-])c(N3CCOCC3)n2)cc1`: the figures for the IC50 in assay [11] and in assay [12] were 3.84 µM (active) and 0.8 µM (active), respectively.
Regarding `Nc1c(S(=O)(=O)c2cccs2)c2nc3ccccc3nc2n1CCc1ccccc1`, the concentration at half-maximal activity (AC50) in assay [13] was 9.23 µM (active); in [16], 9.26 µM (active); in assay [17] it was 12.7 µM (active). Further, the figures for the EC50 in assay [14] and in assay [15] were 27 µM (active) and 30 µM (active), respectively.
Regarding `COc1ccc(CN2CCC(C)(Oc3ccc4c(c3)OCO4)C2)c2ccccc12` (stereo unspecified), the half-maximal activity concentration (AC50) is 6.46 µM (active) in assay [13], 10.1 µM (active) in assay [16], 10.1 µM (active) in [18] and 12.2 µM (active) in [17].
For the molecule `CCc1nc2ccc(C(=O)NCCN3CCNC3=O)cn2c1N(CC)Cc1cccc(Br)c1`, the half-maximal activity concentration (AC50) in [13] was 1.18 µM (active); in assay [16] it was 1.74 µM (active); in assay [18] it was 3.08 µM (active); in assay [17], 1.85 µM (active).
For the molecule `CN(C[C@@H](CC1CCCCC1)N(C[C@H](Cc1ccccc1)N(CCc1ccccc1)N=O)N=O)N=O`, the concentration at half-maximal activity (AC50) is 5.14 µM (active) in [13], 8.38 µM (active) in [16], 42.9 µM (active) in assay [18] and 6.56 µM (active) in [17].
As to `O=C(N/N=C/c1ccc2c(c1)OCO2)c1ccc(Br)o1`, the concentration for a half-maximal effect (EC50) is 0.433 µM (active) in [1]; 0.371 µM (active) in [2]; < 0.1 µM (inconclusive) in assay [3]; 18.6 µM (inconclusive) in [4]; 0.855 µM (active) in [5].

For the origin of these results see ChEMBL document CHEMBL1201862, “PubChem BioAssay data set” (2004).
